This is an account of results in patent US10053431B2, “Tetrahydro-benzodiazepinones” (priority 2013, dated 2018).

Assay [1] has as its target BIR2 domain of XIAP (Homo sapiens (Human), UniProt P98170, C202A/C213G). Put plainly: TR-FRET assay for BIR2 (inhibition of binding of XIAP BIR2 domain to SMAC-derived Peptide A). The following applies: 6x His-tagged BIR2 domain (aa 124-240 of XIAP) 10 nM, Peptide A 20 nM, TR-FRET; read-out: IC50 BIR2. Background: In TR-FRET formats the signal depends on donor and acceptor labels being close together.

For assay [2], the target named is BIR3 domain of XIAP (Homo sapiens (Human), UniProt P98170). As to the kind of experiment: TR-FRET assay for BIR3 (inhibition of binding of XIAP BIR3 domain to SMAC-derived Peptide A). As to conditions: 6x His-tagged BIR3 domain (aa 241-356 of XIAP) 10 nM, Peptide A 20 nM, TR-FRET.

Where a name gives a salt, the structure may show the parent alone.

Sequence of BIR2 domain of XIAP (P98170 124-240 with tags or gaps C202A/C213G limits assumed): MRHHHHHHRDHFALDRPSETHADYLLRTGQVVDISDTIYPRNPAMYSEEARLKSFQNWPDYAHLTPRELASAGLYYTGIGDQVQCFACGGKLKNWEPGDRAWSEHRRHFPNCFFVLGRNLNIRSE
Sequence of BIR3 domain of XIAP (P98170 241-356 with tags or gaps limits assumed): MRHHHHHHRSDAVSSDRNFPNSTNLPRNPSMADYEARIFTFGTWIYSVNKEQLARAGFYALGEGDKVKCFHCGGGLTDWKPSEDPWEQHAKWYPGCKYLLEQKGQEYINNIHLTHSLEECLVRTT

Consider `CN[C@@H](C)C(=O)N[C@H]1CN(C(=O)c2ccc(C(=O)OC)cc2)c2ccccc2N(Cc2c(C)ccc3ccccc23)C1=O` [Example 96a, 4-[(S)-3-((S)-2-Methylamino-propionylamino)-5-(2-methyl-naphthalen-1-ylmethyl)-4-oxo-2,3,4,5-tetrahydro-benzo[b][1,4]diazepine-1-carbonyl]-benzoic acid methyl ester hydrochloride], for which the IC50 is 99 nM in assay [1] and > 54800 nM in assay [2].
Taken in the same sequence, the figures for `CN[C@@H](C)C(=O)N[C@H]1CN(C(=O)c2ccncc2)c2cc(C#N)ccc2N(Cc2nn(-c3ccccc3C#N)c3ccccc23)C1=O` [Example 174, (S)-N-((S)-7-cyano-1-((1-(2-cyanophenyl)-1H-indazol-3-yl)methyl)-5-isonicotinoyl-2-oxo-2,3,4,5-tetrahydro-1H-benzo[b][1,4]diazepin-3-yl)-2-(methylamino)propanamide dihydrochloride] were 22.4 nM and > 54800 nM.
Taken in the same sequence, the figures for `CN[C@@H](C)C(=O)N[C@H]1CN(C(=O)CCN)c2ccccc2N(Cc2c(OC)ccc3cc(C(=O)OC)ccc23)C1=O` [Example 61, 5-[(S)-5-(3-Amino-propionyl)-3-((S)-2-methylamino-propionylamino)-2-oxo-2,3,4,5-tetrahydro-benzo[b][1,4]diazepin-1-ylmethyl]-6-methoxy-naphthalene-2-carboxylic acid methyl ester hydrochloride] were 72 nM and > 54800 nM.
Taken in the same sequence, the figures for `CN[C@@H](C)C(=O)N[C@H]1CN(C(=O)COCCOC)c2ccccc2N(Cc2c(C)ccc3ccccc23)C1=O` [Example 10, (S)—N—[(S)-5-[2-(2-methoxy-ethoxy)-acetyl]-1-(2-methyl-naphthalen-1-ylmethyl)-2-oxo-2,3,4,5-tetrahydro-1H-benzo[b][1,4]diazepin-3-yl]-2-methylamino-propionamide hydrochloride] were 364 nM and > 54800 nM.
Consider `CN[C@@H](C)C(=O)N[C@H]1CN(C(=O)CS(C)(=O)=O)c2cc(C(F)(F)F)ccc2N(Cc2c(C3CC3)cnc3ccccc23)C1=O` [Example 187, (S)-N-((S)-1-((3-cyclopropylquinolin-4-yl)methyl)-5-(2-(methylsulfonyl)acetyl)-2-oxo-7-(trifluoromethyl)-2,3,4,5-tetrahydro-1H-benzo[b][1,4]diazepin-3-yl)-2-(methylamino)propanamide], for which the half-maximal inhibitory concentration (IC50) in assay [1] turned out to be 49.3 nM; in assay [2], 34400 nM.
Taken in the same sequence, the figures for `CN[C@@H](C)C(=O)N[C@H]1CN(C(=O)c2ccc(C(C)=O)cc2)c2ccccc2N(Cc2c(OC)ccc3cc(C(=O)OC)ccc23)C1=O` [Example 43, 5-[(S)-5-(4-Acetyl-benzoyl)-3-((S)-2-methylamino-propionylamino)-2-oxo-2,3,4,5-tetrahydro-benzo[b][1,4]diazepin-1-ylmethyl]-6-methoxy-naphthalen-2-carboxylic acid methyl ester hydrochloride] were 57 nM and 44100 nM.
Taken in the same sequence, the figures for `CN[C@@H](C)C(=O)N[C@H]1CN(C(=O)c2ccc(OC)cc2)c2ccccc2N(Cc2c(C)ccc3ccccc23)C1=O` [Example 96l] were 37 nM and > 54800 nM.
The matching figures for `CN[C@@H](C)C(=O)N[C@H]1CN(C(=O)c2ccccc2C(C)=O)c2ccccc2N(Cc2c(C)ccc3ccccc23)C1=O` [Example 101, (S)—N—[(S)-5-(2-Acetyl-benzoyl)-1-(2-methyl-naphthalen-1-ylmethyl)-2-oxo-2,3,4,5-tetrahydro-1H-benzo[b][1,4]diazepin-3-yl]-2-methylamino-propionamide]: 36 nM and 53400 nM.
As to `CN[C@@H](C)C(=O)N[C@H]1CN(C(C)=O)c2cc(C#N)ccc2N(Cc2c(OC)ccc3c(C#N)cccc23)C1=O` [Example 182, (S)-N-((S)-5-acetyl-7-cyano-1-((5-cyano-2-methoxynaphthalen-1-yl)methyl)-2-oxo-2,3,4,5-tetrahydro-1H-benzo[b][1,4]diazepin-3-yl)-2-(methylamino)propanamide], the IC50 in assay [1] turned out to be 23.5 nM; in assay [2], 32400 nM.
Consider `CN[C@@H](C)C(=O)N[C@H]1CN(C(=O)CC(N)=O)c2ccccc2N(Cc2c(C)ccc3ccccc23)C1=O` [Example 11, (S)—N—[(S)-5-(2-Carbamoyl-acetyl)-1-(2-methyl-naphthalen-1-ylmethyl)-2-oxo-2,3,4,5-tetrahydro-1H-benzo[b][1,4]diazepin-3-yl]-2-methylamino-propionamide hydrochloride], for which the IC50 in assay [1] is 426 nM; in assay [2], > 54800 nM.
As to `CN[C@@H](C)C(=O)N[C@H]1CN(C(=O)c2ccc(C#N)cc2)c2cc(C#N)ccc2N(Cc2c(OC)ccc3c(Br)cccc23)C1=O` [Example 143, (S)-N-((S)-1-((5-bromo-2-methoxynaphthalen-1-yl)methyl)-7-cyano-5-(4-cyanobenzoyl)-2-oxo-2,3,4,5-tetrahydro-1H-benzo[b][1,4]diazepin-3-yl)-2-(methylamino)propanamide hydrochloride], the IC50 in assay [1] came out at 5.11 nM; in assay [2], 16300 nM.
With `CN[C@@H](C)C(=O)N[C@H]1CN(C(=O)CCS(C)(=O)=O)c2cc(C(F)(F)F)ccc2N(Cc2c(C3CC3)cnc3ccccc23)C1=O` [Example 188, (S)-N-((S)-1-((3-cyclopropylquinolin-4-yl)methyl)-5-(3-(methylsulfonyl)propanoyl)-2-oxo-7-(trifluoromethyl)-2,3,4,5-tetrahydro-1H-benzo[b][1,4]diazepin-3-yl)-2-(methylamino)propanamide], the IC50 is 22.5 nM in assay [1] and 25400 nM in assay [2].
The matching figures for `CN[C@@H](C)C(=O)N[C@H]1CN(C(=O)c2ccc(C#N)cc2)c2cc(Cl)ccc2N(Cc2c(OC(F)F)ccc3ccccc23)C1=O` [Example 139, (S)-N-((S)-7-chloro-5-(4-cyanobenzoyl)-1-((2-(difluoromethoxy)naphthalen-1-yl)methyl)-2-oxo-2,3,4,5-tetrahydro-1H-benzo[b][1,4]diazepin-3-yl)-2-(methylamino)propanamide hydrochloride]: 34.7 nM and 36900 nM.
Taken in the same sequence, the figures for `CN[C@@H](C)C(=O)N[C@H]1CN(C(=O)c2ccc3cn[nH]c3c2)c2ccccc2N(Cc2c(C)ccc3ccccc23)C1=O` [Example 158, (2S)-N-[(3S)-1-(1H-indazole-6-carbonyl)-5-[(2-methylnaphthalen-1-yl)methyl]-4-oxo-2,3-dihydro-1,5-benzodiazepin-3-yl]-2-(methylamino)propanamide] were 18.2 nM and > 54800 nM.
`CCN[C@@H](C)C(=O)N[C@H]1CN(C(=O)CS(C)(=O)=O)c2ccccc2N(Cc2c(OC)ccc3cc(Br)ccc23)C1=O` [Example 149, (S)-N-((S)-1-((6-bromo-2-methoxynaphthalen-1-yl)methyl)-5-(2-(methylsulfonyl)acetyl)-2-oxo-2,3,4,5-tetrahydro-1H-benzo[b][1,4]diazepin-3-yl)-2-(ethylamino)propanamide]: the IC50 in assay [1] is 183 nM; in assay [2], > 54800 nM.
Taken in the same sequence, the figures for `CN[C@@H](C)C(=O)N[C@H]1CN(C(=O)CS(C)(=O)=O)c2ccc(C#N)cc2N(Cc2c(C)ccc3ccccc23)C1=O` [Example 172, (S)-N-((S)-8-cyano-1-((2-methylnaphthalen-1-yl)methyl)-5-(2-(methylsulfonyl)acetyl)-2-oxo-2,3,4,5-tetrahydro-1H-benzo[b][1,4]diazepin-3-yl)-2-(methylamino)propanamide hydrochloride] were 94.7 nM and > 54800 nM.
The matching figures for `CN[C@@H](C)C(=O)N[C@H]1CN(C(=O)CCCN)c2ccccc2N(Cc2c(OC)ccc3cc(C(=O)OC)ccc23)C1=O` [Example 49, 5-[(S)-5-(4-Amino-butyryl)-3-((S)-2-methylamino-propionylamino)-2-oxo-2,3,4,5-tetrahydro-benzo[b][1,4]diazepin-1-ylmethyl]-6-methoxy-naphthalene-2-carboxylic acid methyl ester hydrochloride]: 127 nM and > 54800 nM.
The matching figures for `CN[C@@H](C)C(=O)N[C@H]1CN(C(=O)c2ccc(C(C)=O)cc2)c2ccccc2N(Cc2c(C)ccc3ccccc23)C1=O` [Example 13f]: 54 nM and > 54800 nM.
In the case of `CN[C@@H](C)C(=O)N[C@H]1CN(C(=O)CN2CCN(C)CC2)c2ccccc2N(Cc2c(C)ccc3ccccc23)C1=O` [Example 12, (S)-2-methylamino-N—{(S)-1(2-methyl-naphthalen-1-ylmethyl)-5-[2-(4-methyl-piperazin-1-yl)-acetyl]-2-oxo-2,3,4,5-tetrahydro-1H-benzo[b][1,4]diazepin-3-yl}-propionamide hydrochloride], the IC50 in assay [1] is 820 nM; in assay [2], > 54800 nM.
The matching figures for `CN[C@@H](C)C(=O)N[C@H]1CN(C(=O)c2ccc(F)cc2)c2cc(Cl)ccc2N(Cc2c(OC)ccc3c(Br)cccc23)C1=O` [Example 126, (S)-N-((S)-1-((5-bromo-2-methoxynaphthalen-1-yl)methyl)-7-chloro-5-(4-fluorobenzoyl)-2-oxo-2,3,4,5-tetrahydro-1H-benzo[b][1,4]diazepin-3-yl)-2-(methylamino)propanamide hydrochloride]: 17.2 nM and 21500 nM.
The matching figures for `CC[C@H](NC)C(=O)N[C@H]1CN(C(=O)c2ccc(C(C)=O)cc2)c2ccccc2N(Cc2c(OC)ccc3cc(Br)ccc23)C1=O` [Example 79, (S)—N—((S)-5-(4-Acetylbenzoyl)-1-((6-bromo-2-methoxynaphthalen-1-yl)methyl)-2-oxo-2,3,4,5-tetrahydro-1H-benzo[b][1,4]diazepin-3-yl)-2-(methylamino)butanamide hydrochloride]: 1 nM and 3480 nM.

As a reminder, the IC50 is the concentration that inhibits the measured activity by half.
